Literature values as cited in US6103262A, “Modified-release metronidazole compositions and methods for making and using same” (priority 1994, dated 2000).

Legend:
[1] = system: Trichomonas vaginalis, Entamoeba histolytica, Helicobacter species, anaerobic bacteria
[2] = system: trichomoniasis or bacterial vaginosis
[3] = in vivo

- aqueous solubility (in words): aqueous soluble
- absorption by the bloodstream [3]: rapidly absorbed
- clearance from the bloodstream [3]: rapidly cleared
Structure (SMILES): Cc1ncc([N+](=O)[O-])n1CCO [metronidazole, 1-(2-hydroxyethyl)-2-methyl-5-nitroimidazole]
- killing of microorganisms [1]: effective for killing
- side effects ([2]; in vivo): significant and undesirable side effects such as nausea
- occurrence and severity of side effects, lower dosages ([2]; in vivo, po): significantly reduce the occurrence and severity of side effects
- clinical efficacy ([2]; single large dose (~2 grams) as a bolus): clinically effective
